Experiments:
[1] = target: T1, D(1A) dopamine receptor (Rattus norvegicus, UniProt P18901); assay: Binding affinity to dopamine D1 receptor high binding site by radioligand displacement assay
[2] = target: T2, D(3) dopamine receptor (Homo sapiens, UniProt P35462); assay: Displacement of [3H]domperidone from human cloned dopamine D3 receptor expressed in mouse CCL1-3 cells by scintillation counting; format: cell-based
[3] = target: T1, D(1A) dopamine receptor; assay: Binding affinity to dopamine D1 receptor low binding site by radioligand displacement assay
[4] = target: T2, D(3) dopamine receptor; assay: Displacement of [3H]domperidone from human cloned dopamine D3 receptor high binding site expressed in mouse CCL1-3 cells by scintillation counting; format: cell-based
[5] = target: T2, D(3) dopamine receptor; assay: Displacement of [3H]domperidone from human dopamine D3 receptor expressed in human HEK293 cells by scintillation counting; format: cell-based
[6] = target: D(2) dopamine receptor (Rattus norvegicus, UniProt P61169); assay: Displacement of [3H]domperidone from dopamine D2 receptor low binding site in Sprague-Dawley rat striatum by scintillation counting
Chain of D(2) dopamine receptor (P61169 whole entry): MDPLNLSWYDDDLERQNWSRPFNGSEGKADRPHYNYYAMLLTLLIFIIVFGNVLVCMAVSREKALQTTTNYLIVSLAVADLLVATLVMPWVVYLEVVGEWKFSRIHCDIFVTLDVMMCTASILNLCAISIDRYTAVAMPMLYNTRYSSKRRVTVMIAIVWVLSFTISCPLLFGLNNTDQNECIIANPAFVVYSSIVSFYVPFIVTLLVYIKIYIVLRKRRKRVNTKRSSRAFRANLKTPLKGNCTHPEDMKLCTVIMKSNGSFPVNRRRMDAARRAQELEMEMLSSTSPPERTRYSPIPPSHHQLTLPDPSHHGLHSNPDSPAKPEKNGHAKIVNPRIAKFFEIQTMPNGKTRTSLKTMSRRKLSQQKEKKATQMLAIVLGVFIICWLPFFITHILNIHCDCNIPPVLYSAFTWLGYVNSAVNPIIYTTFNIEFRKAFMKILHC

T2 sequence (P35462 whole entry): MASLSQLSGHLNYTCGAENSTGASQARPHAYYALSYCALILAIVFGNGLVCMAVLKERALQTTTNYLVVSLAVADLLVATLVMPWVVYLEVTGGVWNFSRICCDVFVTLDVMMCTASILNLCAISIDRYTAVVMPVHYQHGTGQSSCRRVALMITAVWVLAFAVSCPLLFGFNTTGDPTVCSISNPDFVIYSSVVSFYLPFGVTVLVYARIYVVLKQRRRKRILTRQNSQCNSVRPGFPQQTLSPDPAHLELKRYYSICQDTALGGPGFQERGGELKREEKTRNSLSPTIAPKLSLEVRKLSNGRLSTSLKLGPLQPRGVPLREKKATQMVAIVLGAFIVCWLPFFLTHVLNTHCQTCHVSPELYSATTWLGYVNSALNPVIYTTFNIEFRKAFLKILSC
T1 sequence (P18901 whole entry): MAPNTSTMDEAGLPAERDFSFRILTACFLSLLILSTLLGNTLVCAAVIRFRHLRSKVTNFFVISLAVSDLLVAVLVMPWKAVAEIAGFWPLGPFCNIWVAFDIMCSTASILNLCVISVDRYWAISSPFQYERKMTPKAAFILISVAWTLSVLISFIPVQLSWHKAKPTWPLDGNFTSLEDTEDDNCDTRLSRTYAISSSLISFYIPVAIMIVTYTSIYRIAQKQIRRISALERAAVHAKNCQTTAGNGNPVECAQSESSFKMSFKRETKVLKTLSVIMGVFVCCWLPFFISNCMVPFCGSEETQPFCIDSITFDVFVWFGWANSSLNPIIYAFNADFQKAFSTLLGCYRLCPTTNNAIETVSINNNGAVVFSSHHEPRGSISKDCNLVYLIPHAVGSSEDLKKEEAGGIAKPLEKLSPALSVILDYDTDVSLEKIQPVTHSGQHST

Row | Structure (SMILES) | Ki [1] | Ki [2] [µM] | Ki [3] [µM] | Ki [4] [µM] | Ki [5] [µM] | Ki [6] [µM]
1 | CCCN1CCc2cc(F)cc3c2[C@H]1Cc1ccc(O)c(O)c1-3 | Not Active | > 10 | > 5 | 0.0038 |  | 
2 | CCCN1CCc2cc(OC)cc3c2[C@H]1Cc1ccc(O)c(O)c1-3 |  |  | > 5 |  | 0.00102 | 
3 | CCCN1CCc2cccc3c2[C@H]1Cc1cccc(O)c1-3 | Not Active |  |  | 0.0012 |  | 
4 | CN1CCc2cc(OCCF)cc3c2[C@H]1Cc1ccc(O)c(O)c1-3 | Not Active | > 10 | 3.7 |  |  | 
5 | CN1CCc2cc(OCCCF)cc3c2[C@H]1Cc1ccc(O)c(O)c1-3 | Not Active | > 10 | > 5 |  |  | > 10
6 | CCN1CCc2cc(OCCF)cc3c2[C@H]1Cc1ccc(O)c(O)c1-3 | Not Active | > 10 | > 5 | 0.25 |  | 
7 | CCCN1CCc2cc(OCCF)cc3c2[C@H]1Cc1cccc(O)c1-3 | Not Active |  | > 5 |  |  | 
8 | CCN1CCc2cc(OCCCF)cc3c2[C@H]1Cc1ccc(O)c(O)c1-3 | Not Active | > 10 | > 5 | 0.23 |  | 
9 | CCCN1CCc2cc(OC)cc3c2[C@H]1Cc1cccc(O)c1-3 | Not Active | > 10 |  | 0.13 |  | 
10 | Oc1cccc2c1-c1cccc3c1[C@@H](C2)N(CCCF)CC3 | Not Active |  | > 5 |  |  | 
11 | CCN1CCc2cc(OCCCF)cc3c2[C@H]1Cc1cccc(O)c1-3 | Not Active |  | > 5 |  |  | 
12 | CCN1CCc2cc(OCCF)cc3c2[C@H]1Cc1cccc(O)c1-3 | Not Active |  | > 5 |  |  | 
13 | CN1CCc2cc(OCCF)cc3c2[C@H]1Cc1cccc(O)c1-3 | Not Active |  |  |  |  | 
14 | CCCN1CCc2cc(OCCCF)cc3c2[C@H]1Cc1cccc(O)c1-3 | Not Active |  | > 5 |  |  | 
15 | CCCN1CCc2cc(OCCF)cc3c2[C@H]1Cc1ccc(O)c(O)c1-3 | Not Active |  | > 5 | 0.0019 |  | 
16 | CCCN1CCc2cc(OCCCF)cc3c2[C@H]1Cc1ccc(O)c(O)c1-3 | Not Active |  | > 5 | 0.0011 |  | 

Source: ChEMBL document CHEMBL1671824, “Synthesis and Evaluation of Fluorinated Aporphines: Potential Positron Emission Tomography Ligands for D2 Receptors” (ACS Med Chem Lett, 2011)
